The values below come from publication PMC7827406, “Structure–Activity Relationship (SAR) Study of Spautin-1 to Entail the Discovery of Novel NEK4 Inhibitors” (International Journal of Molecular Sciences, 2021).

SMILES strings stand for the structures. Where two headings read alike, the source gives them in different places.

Holding throughout (test): biochemical
Common to all, as to parameters: Eurofins KinaseProfiler full panel at Km ATP, residual kinase activity (%) relative to DMSO

One test deals with T1, cSRC(h) (Homo sapiens, UniProt P12931).
T1 construct: gene SRC
T1 sequence (P12931 whole entry): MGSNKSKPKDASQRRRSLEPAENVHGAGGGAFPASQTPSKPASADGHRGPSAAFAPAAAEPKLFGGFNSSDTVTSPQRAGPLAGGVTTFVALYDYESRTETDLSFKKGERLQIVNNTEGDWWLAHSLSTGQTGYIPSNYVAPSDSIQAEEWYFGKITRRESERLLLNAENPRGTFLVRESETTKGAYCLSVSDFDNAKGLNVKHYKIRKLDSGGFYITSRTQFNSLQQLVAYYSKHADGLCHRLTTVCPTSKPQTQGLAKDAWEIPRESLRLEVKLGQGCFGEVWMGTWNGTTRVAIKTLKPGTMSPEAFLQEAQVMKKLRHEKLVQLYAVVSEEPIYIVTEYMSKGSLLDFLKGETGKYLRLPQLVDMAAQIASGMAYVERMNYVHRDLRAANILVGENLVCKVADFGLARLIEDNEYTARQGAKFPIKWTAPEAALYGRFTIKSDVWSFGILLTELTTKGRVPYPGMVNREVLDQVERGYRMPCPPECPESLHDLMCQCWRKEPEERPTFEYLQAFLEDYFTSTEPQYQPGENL
In a few lines: (§1)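 Compounds screened at 10 µM in radiometric kinase activity assays at Km ATP, reported as remaining kinase activity (%). A KINOMEscan competition-binding screen at 10 µM measured DNA-tagged kinase retained on immobilized active-site ligand by qPCR.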

The next test concerns the target T2, EphB2(h) (Homo sapiens, UniProt P29323).
T2 sequence (P29323 1-1055): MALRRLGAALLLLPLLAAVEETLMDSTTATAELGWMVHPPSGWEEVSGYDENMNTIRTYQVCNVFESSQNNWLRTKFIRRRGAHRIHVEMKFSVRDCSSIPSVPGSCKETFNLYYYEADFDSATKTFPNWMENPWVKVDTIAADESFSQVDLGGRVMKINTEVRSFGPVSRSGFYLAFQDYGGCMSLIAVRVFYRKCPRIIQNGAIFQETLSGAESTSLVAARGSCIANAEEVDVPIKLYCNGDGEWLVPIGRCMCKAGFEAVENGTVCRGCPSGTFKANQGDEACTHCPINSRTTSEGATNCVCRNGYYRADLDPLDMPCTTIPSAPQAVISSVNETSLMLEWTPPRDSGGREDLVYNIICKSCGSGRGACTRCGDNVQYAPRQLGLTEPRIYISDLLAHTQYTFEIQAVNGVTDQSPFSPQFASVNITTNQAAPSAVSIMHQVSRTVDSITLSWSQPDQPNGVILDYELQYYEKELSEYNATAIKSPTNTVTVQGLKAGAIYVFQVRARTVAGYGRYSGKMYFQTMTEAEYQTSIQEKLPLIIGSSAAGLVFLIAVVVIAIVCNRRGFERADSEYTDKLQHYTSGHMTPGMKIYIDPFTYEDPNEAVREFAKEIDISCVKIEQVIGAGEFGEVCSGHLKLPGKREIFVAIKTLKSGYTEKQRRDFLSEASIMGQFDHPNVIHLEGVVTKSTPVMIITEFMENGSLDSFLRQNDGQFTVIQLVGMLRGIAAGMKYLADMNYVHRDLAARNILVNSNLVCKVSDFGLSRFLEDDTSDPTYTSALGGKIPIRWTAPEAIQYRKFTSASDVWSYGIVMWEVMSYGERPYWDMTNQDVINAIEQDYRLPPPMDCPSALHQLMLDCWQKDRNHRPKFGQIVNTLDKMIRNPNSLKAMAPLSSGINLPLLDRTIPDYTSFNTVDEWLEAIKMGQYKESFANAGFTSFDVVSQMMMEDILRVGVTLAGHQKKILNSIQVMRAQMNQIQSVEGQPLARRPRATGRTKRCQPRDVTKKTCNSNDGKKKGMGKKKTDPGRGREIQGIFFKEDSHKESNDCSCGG
Put shortly:
as §1

The next test concerns the target T3, CaMKIIβ(h) (Homo sapiens, UniProt Q13554).
T3 construct: gene CAMK2B
In a few lines:
as §1

The target of another test is T4, SGK2(h) (Homo sapiens, UniProt Q9HBY8).
T4 sequence (Q9HBY8 1-367): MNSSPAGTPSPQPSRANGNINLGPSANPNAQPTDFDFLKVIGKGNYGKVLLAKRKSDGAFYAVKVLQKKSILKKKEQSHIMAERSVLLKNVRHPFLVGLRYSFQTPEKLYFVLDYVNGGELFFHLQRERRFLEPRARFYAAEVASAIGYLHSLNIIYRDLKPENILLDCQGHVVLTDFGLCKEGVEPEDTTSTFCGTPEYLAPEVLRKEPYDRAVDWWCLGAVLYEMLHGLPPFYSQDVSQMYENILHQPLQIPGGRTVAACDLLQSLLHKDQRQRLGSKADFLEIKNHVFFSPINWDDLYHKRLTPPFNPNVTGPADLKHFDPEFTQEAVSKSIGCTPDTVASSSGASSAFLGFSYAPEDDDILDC
Put shortly: as §1

In another test the target is T5, IR(h), activated (Homo sapiens, UniProt P06213).
T5 construct: gene INSR
In a few lines:
as §1

For a further test, the target named is T6, HPK1(h) (Homo sapiens, UniProt Q92918).
T6 construct: gene MAP4K1
In a few lines:
as §1

The next test addresses Cdc7/cyclinB1(h) (Homo sapiens, UniProt O00311). In a few lines: as §1
The next test deals with T7, PKBγ(h) (Homo sapiens, UniProt Q9Y243).
T7 construct: gene AKT3
In a few lines: as §1

The next test deals with LRRK2(h) (Homo sapiens, UniProt Q5S007). Put shortly:
as §1

A further test has as its target TYK2(h) (Homo sapiens, UniProt P29597). Put shortly:
as §1

For a further test, the target named is TLK2(h) (Homo sapiens, UniProt Q86UE8). In a few lines: as §1
[1] abbreviates: read-out: Residual activity (%) 5at.
Where [2] appears, read: read-out: Residual activity (%) 5ay.
Setting [3] is: read-out: Residual activity (%) 5as.
The mark [4] stands for this setting: read-out: Residual activity (%) Spautin-1 5aa.

T3 sequence (Q13554 whole entry): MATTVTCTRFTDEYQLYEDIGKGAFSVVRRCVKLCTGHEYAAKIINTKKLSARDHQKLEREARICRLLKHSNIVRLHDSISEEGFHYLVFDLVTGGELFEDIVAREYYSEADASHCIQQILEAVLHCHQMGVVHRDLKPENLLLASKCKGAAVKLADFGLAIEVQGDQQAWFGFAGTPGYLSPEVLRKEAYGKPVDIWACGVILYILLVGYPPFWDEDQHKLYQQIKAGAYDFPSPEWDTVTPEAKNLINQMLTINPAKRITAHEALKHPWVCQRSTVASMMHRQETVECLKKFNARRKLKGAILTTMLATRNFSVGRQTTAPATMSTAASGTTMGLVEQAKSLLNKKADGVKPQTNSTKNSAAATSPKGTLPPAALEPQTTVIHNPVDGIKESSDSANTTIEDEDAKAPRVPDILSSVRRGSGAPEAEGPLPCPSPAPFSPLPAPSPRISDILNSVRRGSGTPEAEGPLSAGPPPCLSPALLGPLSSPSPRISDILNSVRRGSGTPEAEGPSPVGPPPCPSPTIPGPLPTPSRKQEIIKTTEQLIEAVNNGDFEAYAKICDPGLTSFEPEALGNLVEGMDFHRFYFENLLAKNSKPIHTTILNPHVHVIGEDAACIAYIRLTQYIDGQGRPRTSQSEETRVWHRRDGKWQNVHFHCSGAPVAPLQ
Chain of TYK2(h) (P29597 whole entry): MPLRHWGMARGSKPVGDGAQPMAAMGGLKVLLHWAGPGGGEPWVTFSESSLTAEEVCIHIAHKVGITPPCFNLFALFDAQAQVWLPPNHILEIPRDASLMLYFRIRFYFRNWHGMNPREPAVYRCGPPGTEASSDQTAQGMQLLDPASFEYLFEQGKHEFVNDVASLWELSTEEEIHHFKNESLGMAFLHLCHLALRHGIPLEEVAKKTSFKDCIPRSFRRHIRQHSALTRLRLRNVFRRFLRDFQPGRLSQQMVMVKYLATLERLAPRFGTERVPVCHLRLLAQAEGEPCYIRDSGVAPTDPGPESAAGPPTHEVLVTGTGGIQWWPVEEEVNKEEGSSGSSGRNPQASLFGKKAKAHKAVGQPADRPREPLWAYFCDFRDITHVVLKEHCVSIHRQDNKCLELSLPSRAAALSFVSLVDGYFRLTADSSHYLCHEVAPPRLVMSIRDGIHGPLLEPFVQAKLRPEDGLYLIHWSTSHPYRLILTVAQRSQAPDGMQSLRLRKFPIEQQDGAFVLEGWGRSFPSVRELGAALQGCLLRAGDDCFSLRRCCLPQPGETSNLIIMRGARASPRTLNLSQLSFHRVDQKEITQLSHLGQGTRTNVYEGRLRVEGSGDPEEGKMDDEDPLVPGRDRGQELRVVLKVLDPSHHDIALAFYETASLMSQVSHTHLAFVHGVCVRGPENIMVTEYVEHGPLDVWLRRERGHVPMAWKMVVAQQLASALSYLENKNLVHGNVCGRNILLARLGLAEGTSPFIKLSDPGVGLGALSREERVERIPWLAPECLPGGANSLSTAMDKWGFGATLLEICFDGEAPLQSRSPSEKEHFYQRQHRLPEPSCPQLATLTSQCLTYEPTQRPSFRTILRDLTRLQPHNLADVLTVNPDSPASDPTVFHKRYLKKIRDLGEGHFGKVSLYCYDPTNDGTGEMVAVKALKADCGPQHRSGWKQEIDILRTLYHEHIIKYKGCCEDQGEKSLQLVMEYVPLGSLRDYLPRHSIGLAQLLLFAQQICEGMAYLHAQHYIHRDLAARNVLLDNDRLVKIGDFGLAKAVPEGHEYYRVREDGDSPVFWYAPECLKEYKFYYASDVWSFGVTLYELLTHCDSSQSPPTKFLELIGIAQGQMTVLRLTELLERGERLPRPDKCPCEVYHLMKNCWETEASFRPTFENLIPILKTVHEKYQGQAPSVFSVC
Chain of LRRK2(h) (Q5S007 whole entry): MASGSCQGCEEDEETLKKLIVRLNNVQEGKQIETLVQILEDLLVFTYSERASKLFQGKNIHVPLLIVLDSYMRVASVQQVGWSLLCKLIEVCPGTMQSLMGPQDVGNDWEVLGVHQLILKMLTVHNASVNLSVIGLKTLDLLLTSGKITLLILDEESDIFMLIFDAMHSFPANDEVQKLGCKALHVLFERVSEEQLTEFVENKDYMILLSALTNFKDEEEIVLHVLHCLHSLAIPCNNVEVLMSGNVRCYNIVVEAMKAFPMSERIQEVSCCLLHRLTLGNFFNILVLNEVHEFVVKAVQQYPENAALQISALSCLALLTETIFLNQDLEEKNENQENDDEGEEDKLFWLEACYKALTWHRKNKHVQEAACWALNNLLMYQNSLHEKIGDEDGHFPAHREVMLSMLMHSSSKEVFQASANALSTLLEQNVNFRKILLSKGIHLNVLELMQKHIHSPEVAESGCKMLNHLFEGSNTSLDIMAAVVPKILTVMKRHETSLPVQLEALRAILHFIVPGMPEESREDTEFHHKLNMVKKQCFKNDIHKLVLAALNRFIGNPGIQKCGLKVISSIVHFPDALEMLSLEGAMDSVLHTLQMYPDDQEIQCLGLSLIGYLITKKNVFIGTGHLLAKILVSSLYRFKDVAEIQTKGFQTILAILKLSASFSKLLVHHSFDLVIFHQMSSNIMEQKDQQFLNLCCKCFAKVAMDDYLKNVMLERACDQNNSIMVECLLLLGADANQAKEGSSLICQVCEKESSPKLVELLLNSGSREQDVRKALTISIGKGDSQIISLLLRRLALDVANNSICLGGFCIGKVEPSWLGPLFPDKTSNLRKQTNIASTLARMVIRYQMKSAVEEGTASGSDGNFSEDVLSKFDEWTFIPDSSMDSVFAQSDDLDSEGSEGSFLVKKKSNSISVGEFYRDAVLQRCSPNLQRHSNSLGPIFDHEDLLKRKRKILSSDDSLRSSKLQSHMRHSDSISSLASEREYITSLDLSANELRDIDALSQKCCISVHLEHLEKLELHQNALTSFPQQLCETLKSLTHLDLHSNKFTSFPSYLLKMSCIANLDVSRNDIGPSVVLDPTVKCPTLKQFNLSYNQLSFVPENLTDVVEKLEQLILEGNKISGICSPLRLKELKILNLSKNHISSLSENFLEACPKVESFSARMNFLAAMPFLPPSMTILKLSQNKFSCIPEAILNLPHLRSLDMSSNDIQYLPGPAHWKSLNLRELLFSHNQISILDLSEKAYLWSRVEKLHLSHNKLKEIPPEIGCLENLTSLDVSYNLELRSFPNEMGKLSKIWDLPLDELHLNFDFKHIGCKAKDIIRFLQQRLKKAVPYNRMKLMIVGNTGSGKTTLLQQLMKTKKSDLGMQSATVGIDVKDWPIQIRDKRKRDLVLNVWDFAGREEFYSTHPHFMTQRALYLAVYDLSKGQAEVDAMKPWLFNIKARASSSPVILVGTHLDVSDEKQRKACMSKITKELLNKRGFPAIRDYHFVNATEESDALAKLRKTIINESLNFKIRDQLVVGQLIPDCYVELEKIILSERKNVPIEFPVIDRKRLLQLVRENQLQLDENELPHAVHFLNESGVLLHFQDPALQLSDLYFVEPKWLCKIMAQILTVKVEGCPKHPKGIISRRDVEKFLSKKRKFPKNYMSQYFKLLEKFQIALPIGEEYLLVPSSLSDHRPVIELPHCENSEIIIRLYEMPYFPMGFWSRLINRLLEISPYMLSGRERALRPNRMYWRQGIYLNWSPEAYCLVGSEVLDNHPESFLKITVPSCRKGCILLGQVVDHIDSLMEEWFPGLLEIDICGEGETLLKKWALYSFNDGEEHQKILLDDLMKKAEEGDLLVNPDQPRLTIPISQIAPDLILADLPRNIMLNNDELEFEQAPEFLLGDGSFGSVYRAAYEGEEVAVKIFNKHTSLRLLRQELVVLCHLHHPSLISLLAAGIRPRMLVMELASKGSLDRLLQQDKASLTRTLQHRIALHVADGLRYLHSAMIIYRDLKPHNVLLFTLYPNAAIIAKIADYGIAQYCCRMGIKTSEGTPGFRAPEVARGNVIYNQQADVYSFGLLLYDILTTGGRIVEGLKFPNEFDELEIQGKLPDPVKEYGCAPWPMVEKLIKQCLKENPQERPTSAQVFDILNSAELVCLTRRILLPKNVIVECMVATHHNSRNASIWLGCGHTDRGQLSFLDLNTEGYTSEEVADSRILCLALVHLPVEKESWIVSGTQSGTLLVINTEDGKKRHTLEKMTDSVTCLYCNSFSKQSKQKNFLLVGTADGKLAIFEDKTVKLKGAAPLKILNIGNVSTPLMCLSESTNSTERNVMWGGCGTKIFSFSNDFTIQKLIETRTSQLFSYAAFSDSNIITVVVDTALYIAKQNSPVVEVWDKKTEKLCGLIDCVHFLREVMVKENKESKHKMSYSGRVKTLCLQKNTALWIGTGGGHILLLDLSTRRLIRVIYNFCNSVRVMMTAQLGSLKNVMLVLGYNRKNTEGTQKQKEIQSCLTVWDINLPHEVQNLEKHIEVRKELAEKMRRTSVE

`Fc1ccc2ncnc(NCCc3ccc(Cl)cc3)c2c1` [5at, N-[2-(4-Chlorophenyl)Ethyl]-6-Fluoro-4-Quinazolinamine]: the remaining activity at 10 µM at cSRC(h) (setting [1]) was found to be 120%; at EphB2(h) (setting [1]), 93%; at CaMKIIβ(h) (setting [1]) it was 91%; at SGK2(h) (setting [1]) it was 89%; at IR(h), activated (setting [1]) it was 76%; on HPK1(h) (setting [1]), 96%. Besides, the remaining activity at 10 µM at Cdc7/cyclinB1(h) (setting [1]) amounted to 76%; at PKBγ(h) (setting [1]), 105%; at LRRK2(h) (setting [1]), 101%; at TYK2(h) (setting [1]) it was 84%; on TLK2(h) (setting [1]), 103%.
On to `COc1ccc2ncnc(Nc3cccc(F)c3)c2c1` [5ay, N-(3-Fluorophenyl)-6-Methoxy-4-Quinazolinamine], for which the remaining activity at 10 µM is 106% on cSRC(h) (setting [2]); 97% on EphB2(h) (setting [2]); 72% on CaMKIIβ(h) (setting [2]); 103% on SGK2(h) (setting [2]); 71% on IR(h), activated (setting [2]); 92% on HPK1(h) (setting [2]). The remaining activity at 10 µM on Cdc7/cyclinB1(h) (setting [2]) came to 73%; on PKBγ(h) (setting [2]), 89%; at LRRK2(h) (setting [2]) it was 44%; on TYK2(h) (setting [2]), 75%; on TLK2(h) (setting [2]), 97%.
Take `Fc1ccc(CCNc2ncnc3ccc(F)cc23)cc1` [5as, 6-Fluoro-N-[2-(4-Fluorophenyl)Ethyl]-4-Quinazolinamine]: the remaining activity at 10 µM at cSRC(h) (setting [3]) was 81%; at EphB2(h) (setting [3]) it was 82%; on CaMKIIβ(h) (setting [3]) it was 91%; on SGK2(h) (setting [3]), 115%; on IR(h), activated (setting [3]) it was 64%; on HPK1(h) (setting [3]), 98%. For the same compound, the remaining activity at 10 µM stood at 79% on Cdc7/cyclinB1(h) (setting [3]); 102% at PKBγ(h) (setting [3]); 91% on LRRK2(h) (setting [3]); 86% at TYK2(h) (setting [3]); 98% on TLK2(h) (setting [3]).
For the compound `Fc1ccc(CNc2ncnc3ccc(F)cc23)cc1` [5aa, 6-Fluoro-N-(4-fluorobenzyl)-4-Quinazolinamine], the remaining activity at 10 µM at cSRC(h) (setting [4]) worked out at 133%; on EphB2(h) (setting [4]), 96%; on CaMKIIβ(h) (setting [4]) it was 81%; on SGK2(h) (setting [4]), 108%; on IR(h), activated (setting [4]), 98%; on HPK1(h) (setting [4]), 92%. The remaining activity at 10 µM came out at 92% at Cdc7/cyclinB1(h) (setting [4]); 101% at PKBγ(h) (setting [4]); 91% on LRRK2(h) (setting [4]); 109% at TYK2(h) (setting [4]); 99% on TLK2(h) (setting [4]).
